Reference: patent US20050026952A1, “Nicotinamide derivatives useful as PDE4 inhibitors” (Pfizer Inc, priority 2003, published 2005)

tested on: TNFα release from human peripheral blood mononuclear cells; experiment: Inhibition of LPS-stimulated TNFα release from human peripheral blood mononuclear cells (TNFα screen); type: cell-based; details: human PBMC, LPS stimulation, 18 hours incubation, TNFα in supernatant by ELISA
Description: Venous blood is collected from healthy volunteers and the mononuclear cells purified by centrifugation through Histopaque (Ficoll) cushions. TNFα production from these cells is stimulated by addition of lipopolysaccharide. After 18 hours incubation in the presence of LPS, the cell supernatant is removed and the concentration of TNFα in the supernatant determined by ELISA. Addition of PDE4 inhibitors reduces the amount of TNFα produced. An IC50 is determined which is equal to the concentration of compound that gives 50% inhibition of TNFα production as compared to the LPS stimulated control wells.

Row | SMILES | IC50
1 | CSc1cccc(Oc2ncc(F)cc2C(=O)N[C@H]2CC[C@@H](NS(=O)(=O)c3c(O)ccc4nsnc34)CC2)c1 [Example 14] | 1 nM
2 | CSc1cccc(Oc2ncc(F)cc2C(=O)N[C@H]2CC[C@@H](NS(=O)(=O)c3ccc(C)cc3O)CC2)c1 [Example 15, Syn-5-Fluoro-N-[4-(2-hydroxy-4-methyl-benzenesulphonylamino)-cyclohexyl]-2-(3-methylsulphanyl-phenoxy)-nicotinamide] | 2 nM
3 | CSc1cc(Oc2ncc(F)cc2C(=O)N[C@H]2CC[C@@H](NS(=O)(=O)c3cc(C)ccc3O)CC2)ccc1F [Example 16, Syn-5-Fluoro-N-[4-(2-hydroxy-5-methyl-benzenesulphonylamino)-cyclohexyl]-2-(4-fluoro-3-methylsulphanyl-Phenoxy)-nicotinamide] | 3.5 nM

The next molecules have a lower IC50 than those just listed; values first:

Row | IC50 | SMILES
4 | 0.07 nM | CSc1cccc(Oc2ncc(F)cc2C(=O)N[C@H]2CC[C@@H](NS(=O)(=O)c3cccc4cccnc34)CC2)c1 [Example 11, Syn-5-Fluoro-2-(3-methylsulphanyl-phenoxy)-N-[4-(quinoline-8-sulphonylamino)-cyclohexyl]-nicotinamide]
5 | 0.3 nM | CSc1cccc(Oc2ncc(F)cc2C(=O)N[C@H]2CC[C@@H](NS(=O)(=O)c3cccc4nonc34)CC2)c1 [Example 12, Syn-N-[4-(Benzo[1,2,5]oxadiazole-4-sulphonylamino)-cyclohexyl]-5-fluoro-2-(3-methylsulphanyl-phenoxy)-nicotinamide]
6 | 0.09 nM | CSc1cccc(Oc2ncc(F)cc2C(=O)N[C@H]2CC[C@@H](NS(=O)(=O)c3cccc4nsnc34)CC2)c1 [Example 13, Syn-N-[4-(Benzo[1,2,5]thiadiazole-4-sulphonylamino)-cyclohexyl]-5-fluoro-2-(3-methylsulphanyl-phenoxy)-nicotinamide]
